Experiment [1] has as its target Neuronal acetylcholine receptor subunit alpha-7 (Rattus norvegicus, UniProt Q05941). The experiment is described as follows: Binding affinity nicotinic acetylcholine receptor alpha-7 was evaluated by its ability to inhibit [3H]methyllycaconitine ([3H]-MLA) binding to rat brain membranes. Details: species or system Membrane.
The target of experiment [2] is Neuronal acetylcholine receptor; alpha4/beta2 (Rattus norvegicus, UniProt P09483+P12390). The experiment is described as follows: Binding affinity for nicotinic acetylcholine receptor alpha4-beta2 was evaluated by its ability to inhibit [3H]NIC binding to rat brain membranes. Details: species or system Membrane.
Sequence of Neuronal acetylcholine receptor; alpha4/beta2 (P09483 whole entry): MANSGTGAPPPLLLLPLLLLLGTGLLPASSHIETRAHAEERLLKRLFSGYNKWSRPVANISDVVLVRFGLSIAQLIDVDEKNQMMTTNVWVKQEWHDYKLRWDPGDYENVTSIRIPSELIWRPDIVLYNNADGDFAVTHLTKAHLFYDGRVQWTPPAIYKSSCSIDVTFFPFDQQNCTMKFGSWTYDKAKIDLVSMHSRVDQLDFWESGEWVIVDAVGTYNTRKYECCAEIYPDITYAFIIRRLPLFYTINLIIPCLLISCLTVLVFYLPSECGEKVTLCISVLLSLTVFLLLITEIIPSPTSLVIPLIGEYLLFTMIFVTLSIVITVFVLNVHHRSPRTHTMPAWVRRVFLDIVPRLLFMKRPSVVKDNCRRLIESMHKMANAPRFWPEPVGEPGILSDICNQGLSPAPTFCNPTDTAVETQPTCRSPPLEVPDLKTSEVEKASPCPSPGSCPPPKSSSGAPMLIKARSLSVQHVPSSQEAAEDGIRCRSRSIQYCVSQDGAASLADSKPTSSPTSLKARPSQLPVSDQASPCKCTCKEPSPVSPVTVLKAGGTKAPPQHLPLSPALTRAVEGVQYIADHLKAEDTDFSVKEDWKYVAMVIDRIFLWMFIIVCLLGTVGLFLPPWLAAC
Sequence of Neuronal acetylcholine receptor; alpha4/beta2 (P12390 whole entry): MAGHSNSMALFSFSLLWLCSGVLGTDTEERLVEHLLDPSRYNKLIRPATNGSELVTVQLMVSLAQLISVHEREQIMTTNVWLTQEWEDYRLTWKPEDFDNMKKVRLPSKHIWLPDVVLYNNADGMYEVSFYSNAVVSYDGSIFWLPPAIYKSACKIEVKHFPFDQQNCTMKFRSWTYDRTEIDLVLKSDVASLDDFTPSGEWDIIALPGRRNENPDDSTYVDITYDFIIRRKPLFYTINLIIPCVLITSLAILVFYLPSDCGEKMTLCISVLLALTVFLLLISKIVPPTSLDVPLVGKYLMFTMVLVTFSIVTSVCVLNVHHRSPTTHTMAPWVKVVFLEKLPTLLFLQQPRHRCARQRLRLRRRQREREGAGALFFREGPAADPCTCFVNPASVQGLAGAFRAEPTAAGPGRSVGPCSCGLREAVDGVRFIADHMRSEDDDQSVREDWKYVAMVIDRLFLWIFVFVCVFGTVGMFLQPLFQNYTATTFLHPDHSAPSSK
The species named for a further experiment is Rattus norvegicus. The experiment is described as follows: Compound was evaluated for inhibiting NIC-evoked [86Rb+] efflux from rat thalamic synaptosomes. Format: functional. To be noted: Brain.

Sequence of Neuronal acetylcholine receptor subunit alpha-7 (Q05941 whole entry): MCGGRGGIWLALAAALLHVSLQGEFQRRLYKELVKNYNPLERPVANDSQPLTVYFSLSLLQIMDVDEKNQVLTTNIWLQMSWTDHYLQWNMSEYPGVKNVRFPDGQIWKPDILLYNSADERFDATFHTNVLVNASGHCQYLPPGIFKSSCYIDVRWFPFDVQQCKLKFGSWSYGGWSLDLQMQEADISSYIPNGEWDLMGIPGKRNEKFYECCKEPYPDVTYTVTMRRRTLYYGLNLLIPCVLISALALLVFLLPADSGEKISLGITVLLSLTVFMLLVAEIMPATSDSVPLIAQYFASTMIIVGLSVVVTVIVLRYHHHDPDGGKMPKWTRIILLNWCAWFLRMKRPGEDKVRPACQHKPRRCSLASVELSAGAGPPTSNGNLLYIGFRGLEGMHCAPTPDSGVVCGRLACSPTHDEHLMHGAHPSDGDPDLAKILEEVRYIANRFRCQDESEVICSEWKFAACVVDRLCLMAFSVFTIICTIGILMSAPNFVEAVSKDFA

What is called Ki is a measure of affinity in units of concentration, obtained from inhibition or displacement. With `c1ccc2c[n+](CCCCCCCCCC[n+]3ccc4ccccc4c3)ccc2c1`, the Ki in experiment [1] was 7.25 µM; in experiment [2], more than 100 µM. `c1ccc2c[n+](CCCCCCCCC[n+]3ccc4ccccc4c3)ccc2c1`: the results for the Ki in experiment [1] and in experiment [2] were 5.95 µM and 7.89 µM, respectively.

`c1cc[n+](CCCCCCCCC[n+]2ccccc2)cc1` registered a Ki in experiment [1] of more than 100 µM. In the case of `CCCCCCCCCC[n+]1cccc([C@@H]2CCCN2C)c1`, the Ki in experiment [1] was more than 100 µM; in experiment [2], 0.064 µM. Molecule `c1cc[n+](CCCCCCCCCC[n+]2ccccc2)cc1` showed an inhibition constant Ki in experiment [1] of more than 100 µM. One may read the IC50 as the midpoint of a concentration-inhibition curve. Turning to `CN1CCC[C@H]1c1ccc[n+](CCCCCCCCCCC[n+]2cccc([C@@H]3CCCN3C)c2)c1`, the inhibition constant (Ki) in experiment [1] was more than 100 µM; in experiment [2], 0.43 µM. Further, the concentration for half-maximal inhibition (IC50) in the experiment filed under Rattus norvegicus came to 5.22 µM. Consider `c1cc[n+](CCCCCCCC[n+]2ccccc2)cc1`, for which the inhibition constant Ki in experiment [1] was more than 100 µM; in experiment [2], 34.3 µM. In the case of `Cc1ccc[n+](CCCCCCCCCCCC[n+]2cccc(C)c2)c1`, the values for the Ki in experiment [1] and in experiment [2] were more than 100 µM and 48.6 µM, respectively. Molecule `CN1CCC[C@H]1c1ccc[n+](CCCCCCCCCCCC[n+]2cccc([C@@H]3CCCN3C)c2)c1` gave a Ki in experiment [1] of more than 100 µM. `c1ccc2c[n+](CCCCCCCCCCC[n+]3ccc4ccccc4c3)ccc2c1`: in experiment [1], the affinity, expressed as Ki, was 5.46 µM. `c1ccc2c[n+](CCCCCCCC[n+]3ccc4ccccc4c3)ccc2c1`: the Ki in experiment [1] came to 11.7 µM; in experiment [2], 65.5 µM. Taken in the same sequence, the figures for `Cc1ccc[n+](CCCCCCCCCC[n+]2cccc(C)c2)c1` were more than 100 µM and more than 100 µM.

With `c1ccc2c(c1)ccc[n+]2CCCCCC[n+]1cccc2ccccc21`, in experiment [2], the affinity corresponds to a Ki of 39.3 µM. For the molecule `CN1CCC[C@H]1c1ccc[n+](CCCCCCCCCC[n+]2cccc([C@@H]3CCCN3C)c2)c1`, the values for the Ki in experiment [1] and in experiment [2] were more than 100 µM and 0.33 µM, respectively. Besides, the midpoint of inhibition in the experiment listed under Rattus norvegicus, the IC50, lay at 3.76 µM.

As to `COc1cc2c3cc1Oc1cc(ccc1O)C[C@@H]1c4c(cc(OC)c(O)c4Oc4ccc(cc4)C[C@@H]3N(C)CC2)CC[N+]1(C)C`, the values for the inhibition constant Ki in experiment [1] and in experiment [2] were 4.79 µM and 9.72 µM, respectively.

For the molecule `CCCCCCCC[n+]1cccc([C@@H]2CCCN2C)c1`, the affinity in experiment [1] corresponds to a Ki of 23.6 µM. With `c1ccc2c(c1)ccc[n+]2CCCCCCCCCCCC[n+]1cccc2ccccc21`, the Ki in experiment [2] is more than 100 µM. On to `CN1CCC[C@H]1c1ccc[n+](CCCCCCCCC[n+]2cccc([C@@H]3CCCN3C)c2)c1`, for which the results for the Ki in experiment [1] and in experiment [2] were more than 100 µM and 5.03 µM, respectively. `Cc1ccc[n+](CCCCCCCCCCC[n+]2cccc(C)c2)c1` returned a Ki in experiment [1] of more than 100 µM.

For the molecule `c1cc[n+](CCCCCCCCCCC[n+]2ccccc2)cc1`, the figures for the inhibition constant (Ki) in experiment [1] and in experiment [2] were 57 µM and 14 µM, respectively. Taken in the same sequence, the figures for `c1ccc2c(c1)ccc[n+]2CCCCCCCCCCC[n+]1cccc2ccccc21` were 2.58 µM and 37.8 µM.

In the case of `CN1CCC[C@H]1c1ccc[n+](CCCCCCCC[n+]2cccc([C@@H]3CCCN3C)c2)c1`, the inhibition constant Ki in experiment [1] was more than 100 µM; in experiment [2], 1.54 µM. For `Cc1ccc[n+](CCCCCCCC[n+]2cccc(C)c2)c1`, the inhibition constant (Ki) in experiment [1] and in experiment [2] was more than 100 µM in each case. With `Cc1ccc[n+](CCCCCCCCC[n+]2cccc(C)c2)c1`, the Ki in experiment [1] was more than 100 µM; in experiment [2], 79.9 µM. Taken in the same sequence, the figures for `c1cc[n+](CCCCC[n+]2ccccc2)cc1` were more than 100 µM and more than 100 µM. In experiment [1], `c1cc[n+](CCCCCC[n+]2ccccc2)cc1` registered an inhibitory constant (Ki) of more than 100 µM. On the same count and under the same terms, in the case of `CN1CCC[C@H]1c1ccc[n+](CCCCCC[n+]2cccc([C@@H]3CCCN3C)c2)c1` it was more than 100 µM. Take `C[N+](C)(C)CCCCCC[N+](C)(C)C` [HEXAMETHONIUM CHLORIDE]: the inhibition constant Ki in experiment [1] was more than 100 µM; in experiment [2], 21.7 µM. Turning to `Cc1ccc[n+](CCCCCC[n+]2cccc(C)c2)c1`, the inhibitory constant (Ki) in experiment [1] and in experiment [2] was more than 100 µM in each case. With `c1ccc2c(c1)ccc[n+]2CCCCCCCCCC[n+]1cccc2ccccc21`, the Ki was 7.81 µM in experiment [1] and more than 100 µM in experiment [2].

Regarding `c1ccc2c(c1)ccc[n+]2CCCCCCCCC[n+]1cccc2ccccc21`, the inhibition constant (Ki) in experiment [1] was determined as 3.58 µM; in experiment [2], 22.5 µM.

Take `c1ccc2c(c1)ccc[n+]2CCCCCCCC[n+]1cccc2ccccc21`: the Ki in experiment [1] is 2.39 µM; in experiment [2], more than 100 µM.

Values taken from ChEMBL document CHEMBL1135953, “bis-Azaaromatic quaternary ammonium analogues: ligands for alpha4beta2* and alpha7* subtypes of neuronal nicotinic receptors” (Bioorg Med Chem Lett, 2002).
